The source of these data is PubChem BioAssay AID1508612.

Each structure is given as a SMILES string. Bounds are passed on as bounds.

The data set in a line: passive permeability, PAMPA, ADME assay (AID 1508612). To be noted: pH 7.4, 30.0 min, 50.0 µM. A general note: PAMPA measures passive passage across an artificial lipid membrane.
The term Papp denotes a coefficient for how fast a substance crosses the barrier. On to `CN1CCN(C2=Nc3cc(Cl)ccc3Nc3ccccc32)CC1`, for which the Papp is > 1000 ×10⁻⁶ cm/s. The figure for `C[C@@H]1CC(=O)Nc2cccc(-c3cnn(C(C)(C)C)c3)c2N1` is 56.5 ×10⁻⁶ cm/s. With `O=C(Nc1ccc(Cl)c(S(=O)(=O)N2CCOCC2)c1)c1ccccc1`, the apparent permeability coefficient (Papp) was 728 ×10⁻⁶ cm/s. For the molecule `Cc1cn2c(-c3cn[nH]c3)cnc2c(Nc2ccc(C(=O)N3CCNCC3)cc2F)n1`, the apparent permeability coefficient (Papp) was < 1 ×10⁻⁶ cm/s. `O=[S+]([O-])(Nc1ccccc1)c1ccc(NCc2cccc(Cl)c2F)cc1` returned a Papp of 383 ×10⁻⁶ cm/s. The figure for `O=C(Nc1nc(-c2ccccc2)cs1)c1ccncc1NS(=O)(=O)c1ccccc1Cl` is > 1000 ×10⁻⁶ cm/s; for `O=[S+]([O-])(Nc1ccc(N2CCNCC2)cc1)c1ccc(NCc2ccc(Cl)cc2O)cc1` it is 6.78 ×10⁻⁶ cm/s; for `Cc1ccc(OCCn2c(CCNC(=O)C3CCCCC3)nc3ccccc32)cc1` it is > 1000 ×10⁻⁶ cm/s. Regarding `CN1C(=O)c2ccccc2[S@](=O)c2ccc(C(=O)NCc3ccc(Cl)cc3)cc21`, the Papp is > 1000 ×10⁻⁶ cm/s. With `Cc1cnc(CNc2nc(-c3cccc(NS(C)(=O)=O)c3)nc3ccccc23)cn1`, the Papp is > 1000 ×10⁻⁶ cm/s.

Consider `Nc1c(-c2ccncc2)cc[nH]c1=O`, for which the Papp came to 3.1 ×10⁻⁶ cm/s. The figure for `COC1C(OC(=O)c2ccc(C)[nH]2)C(O)C(Oc2ccc3c(O)c(NC(=O)c4ccc(O)c(CC=C(C)C)c4)c(=O)oc3c2Cl)OC1(C)C` (configuration not stated) is 7.04 ×10⁻⁶ cm/s; for `COc1cc(-c2nc(Nc3ccc(F)c(F)c3)c3ccccc3n2)ccn1` it is 22.5 ×10⁻⁶ cm/s. The value for `Cc1ccc2c(c1)[nH]c1c(N3CCN(Cc4ccccc4)CC3)ncnc12` was > 1000 ×10⁻⁶ cm/s; that for `CN1C(=O)c2ccccc2[S@](=O)c2ccc(C(=O)NCc3ccc(Br)cc3)cc21` was > 1000 ×10⁻⁶ cm/s. `COc1cc(-c2nc(-c3c(C)noc3C)cc3c2cc(C)n3CCN(C)C)ccn1`: the apparent permeability coefficient (Papp) was > 1000 ×10⁻⁶ cm/s. Take `C=C1C(=O)OC2C1CCC(C)C1(O)C=CC(=O)C21C` (configuration not stated): the Papp amounted to 64.6 ×10⁻⁶ cm/s. `Cc1cc(NS(=O)(=O)c2ccc(NC(=O)Cc3ccc(Cl)c(F)c3)cc2)no1` showed an apparent permeability (Papp) of 11.5 ×10⁻⁶ cm/s. The value for `Fc1ccc(Nc2nccc(-c3ccncc3)n2)cc1F` was > 1000 ×10⁻⁶ cm/s; that for `Cc1ccc(S(=O)(=O)Nc2ccccc2C(=O)Nc2nc(-c3ccccc3)c(C)s2)cc1` was 30.1 ×10⁻⁶ cm/s. The figure for `CCNC(=O)c1noc(-c2cc(C(C)C)c(O)cc2O)c1-c1ccc(CN2CCOCC2)cc1` is 335 ×10⁻⁶ cm/s; for `Cc1ccc(/C=C/c2nc3ccccc3n2S(=O)(=O)c2cccc(Cl)c2)cc1` it is 11.5 ×10⁻⁶ cm/s. The figure for `CN1CCCN(C(c2ccccc2)c2ccc(Cl)cc2)CC1` (configuration not stated) is 652 ×10⁻⁶ cm/s. As for `Cn1cc(Br)c(C2N=C(Nc3nc4ccccc4o3)NC3=C2C(=O)CCC3)n1` (configuration not stated), the Papp is > 1000 ×10⁻⁶ cm/s. The value for `COc1ccc(NC(=O)c2c(C)cccc2C)cc1[S+](=O)([O-])N1CCCCC1` was 548 ×10⁻⁶ cm/s.

Take `CC(=O)c1c(C)[nH]c(C(=O)Nc2cccc([S+](=O)([O-])Nc3c(C)cccc3C)c2)c1C`: the Papp was determined as 117 ×10⁻⁶ cm/s. The figure for `Nc1cc2nc3ccccc3oc-2cc1=O` is 106 ×10⁻⁶ cm/s.

The molecule `COc1ccc(NC(=O)c2cccnc2C)cc1S(=O)(=O)Nc1ccc(Br)cc1` displayed a Papp of 522 ×10⁻⁶ cm/s. For the molecule `CCN(CC)S(=O)(=O)c1ccc(N2CCCC2)c(NS(=O)(=O)c2ccccc2)c1`, the Papp was 396 ×10⁻⁶ cm/s. In the case of `CC(=O)Nc1ccc(-c2csc(N3CCC(C(N)=O)CC3)n2)cc1`, the apparent permeability coefficient (Papp) is < 1 ×10⁻⁶ cm/s. The figure for `COc1cc([C@@H](CC(=O)O)c2ccc(C)c(CN3C[C@@H](C)Oc4ccccc4S3(=O)=O)c2)cc2nnn(C)c12` is 2.9 ×10⁻⁶ cm/s.

Regarding `O=C1Nc2ccccc2/C1=C\c1cc(Br)c(O)c(Br)c1`, the apparent permeability coefficient (Papp) was 50.5 ×10⁻⁶ cm/s. The value for `NC(=O)C1CCN(c2ncc(-c3cccc(N4CCOCC4)c3)s2)CC1` was 374 ×10⁻⁶ cm/s; that for `Cc1cc(F)ccc1-c1nc(NCCN=C(N)NC#N)nc2c1ccc(=O)n2-c1c(F)cccc1F` was < 1 ×10⁻⁶ cm/s. The value for `COC(=O)CNC(=O)c1nc(-c2ccc(F)cc2)c2ccccn12` was > 1000 ×10⁻⁶ cm/s. The value for `Cc1cccc(Nc2nc(NCc3ccco3)c3ccccc3n2)c1` was 730 ×10⁻⁶ cm/s; that for `CCc1cccc(CC)c1-n1c(C=C(C)C)c(C(=O)N2CCNCC2)cc(-c2nc(-c3ccc(C(F)(F)F)cc3)cs2)c1=O` was 33.8 ×10⁻⁶ cm/s; that for `Cc1ccc(-c2csc(NC(=O)c3ccccc3NS(=O)(=O)c3ccc(C)cc3)n2)cc1` was 35.6 ×10⁻⁶ cm/s. `Fc1cc(Nc2nc(-c3ccncc3)nc3ccccc23)ccc1-c1cccc(OC(F)F)c1` had a Papp of 30.1 ×10⁻⁶ cm/s.

Consider `CC1CCN(S(=O)(=O)c2ccc3c(ccc(=O)n3CC(=O)NCc3ccc(Cl)cc3)c2)CC1`, for which the apparent permeability (Papp) was found to be 799 ×10⁻⁶ cm/s. The value for `CCOC(=O)C1=C(CN(CC)Cc2ccccc2)NC(=O)NC1c1ccc(OC(C)C)cc1` (configuration not stated) was > 1000 ×10⁻⁶ cm/s; that for `Cc1ccc(-c2cc(C(=O)Nc3ccc(-c4noc(=O)[nH]4)cc3)c3ccccc3n2)cc1C` was 3 ×10⁻⁶ cm/s. The figure for `CC(C)(C)C1CCc2[nH]c3ccccc3c(=O)c2C1` (configuration not stated) is 356 ×10⁻⁶ cm/s.

Take `COc1ccc(CN2C(=O)[C@@H]3C[C@@H](CN3Cc3cccs3)Oc3ccccc32)cc1`: the Papp worked out at 900 ×10⁻⁶ cm/s. The figure for `Cc1cc(NC(=S)N2CCN(c3cccc(C(F)(F)F)c3)CC2)nc2ccccc12` is 31.5 ×10⁻⁶ cm/s; for `COc1ccc(OC)c(-n2c3c(cc(-c4nc(-c5ccc(Cl)cc5)cs4)c2=O)C(=O)CC(C)(C)C3)c1` it is 216 ×10⁻⁶ cm/s. Take `Cc1ccc(CCNC(=O)C2CCCN(C(=O)c3cc4sccc4n3C)C2)cc1` (configuration not stated): the Papp was > 1000 ×10⁻⁶ cm/s. The value for `O=C(NC1CCCc2c1cnn2-c1ccc(O)cc1)c1ccccn1` (configuration not stated) was 587 ×10⁻⁶ cm/s; that for `c1cc(-c2cc(-c3ccncc3)c3cncn3c2)c2[nH]ncc2c1` was 25.1 ×10⁻⁶ cm/s; that for `CCCCNC(=O)CN1CCN(c2ncc(NC(=O)c3ccc(Cl)cc3)cc2C(=O)O)CC1` was < 1 ×10⁻⁶ cm/s.

Regarding `CCOc1ccc(CCNC(=O)c2ccc(C(=O)c3ccccc3)cc2)cc1OCC`, the Papp was > 1000 ×10⁻⁶ cm/s. `CCn1c(C(=O)NCCc2ccc(OC)cc2)cc2sccc21` registered a Papp of 721 ×10⁻⁶ cm/s. For the molecule `CC(C)(N)CNC(=O)CC1CCC2(CC1)OOC1(O2)C2CC3CC(C2)CC1C3` (configuration not stated), the Papp amounted to 488 ×10⁻⁶ cm/s. The figure for `NC(=O)C1CCN(c2nc(-c3cccc(F)c3)cs2)CC1` is 685 ×10⁻⁶ cm/s; for `O=C(Cc1ccccc1)Nc1ccc(S(=O)(=O)Nc2nccs2)cc1` it is 1.67 ×10⁻⁶ cm/s.

Consider `Cc1ccc(S(=O)(=O)Nc2ccc(C)cc2C(=O)Nc2nc(-c3ccccc3)cs2)cc1`, for which the apparent permeability (Papp) was < 1 ×10⁻⁶ cm/s. The value for `Cc1ccc(S(=O)(=O)Nc2cc(Cl)c(Cl)cc2C(=O)Nc2nc(-c3ccccc3)cs2)cc1` was 5 ×10⁻⁶ cm/s; that for `Cc1nnc(-c2ccccc2C(C)C)nc1NCc1ccc(-c2cccnc2)cc1` was > 1000 ×10⁻⁶ cm/s; that for `Cc1ccc(S(=O)(=O)N[C@@H](Cc2ccccc2)C(=O)CCl)cc1` was 323 ×10⁻⁶ cm/s. For the molecule `Nc1ccc(CNc2ccc([S+](=O)([O-])Nc3nccs3)cc2)c(O)c1`, the Papp is < 1 ×10⁻⁶ cm/s.

As for `COc1cc2c(C(=O)N3CCN(c4cccc(C(F)(F)F)c4)CC3)cn(CC(C)C)c(=O)c2cc1OC`, the Papp is > 1000 ×10⁻⁶ cm/s. On to `CCn1c(=O)cc(OCC(=O)N2CCN(c3cccc(Cl)c3)CC2)c2ccccc21`, for which the Papp was 941 ×10⁻⁶ cm/s. In turn, `Cc1ccc(S(=O)(=O)Nc2ccc(OC(F)(F)F)cc2C(=O)Nc2nc(-c3ccccc3)cs2)cc1` had a Papp of 1.6 ×10⁻⁶ cm/s. The figure for `O=C(O)Cn1c(C(=O)Nc2nc(-c3ccccc3Cl)cs2)cc2ccccc21` is 21.5 ×10⁻⁶ cm/s; for `COc1ccc(-c2nc3ccccc3c(=O)n2Cc2ccco2)cc1COc1ccc(NC(C)=O)cc1` it is 8.72 ×10⁻⁶ cm/s.

The molecule `CCNc1oc(-c2cccc3ccccc23)nc1C#N` returned an apparent permeability (Papp) of 728 ×10⁻⁶ cm/s. The figure for `Cc1cccc(CN2CCN(c3ccccn3)CC2)c1` is > 1000 ×10⁻⁶ cm/s; for `CC(C)c1c(-c2ccccc2)nc2c(C#N)c[nH]n2c1=O` it is 9.91 ×10⁻⁶ cm/s. For `Cn1c(=O)cc(C(=O)NC2CCCc3c2[nH]c2c(Cl)cccc32)c2ccccc21` (configuration not stated), the apparent permeability (Papp) was 68 ×10⁻⁶ cm/s. The figure for `Cc1ccc(S(=O)(=O)Nc2cc(Cl)ccc2C(=O)Nc2nc(-c3ccccc3)cs2)cc1` is 23.4 ×10⁻⁶ cm/s; for `COC(=O)c1ccc(NC(=O)c2nc3ccccc3n(C)c2=O)cc1` it is 350 ×10⁻⁶ cm/s.

`CCOc1ccccc1CNS(=O)(=O)c1ccc(-c2cnc(C3CC3)o2)cc1`: the Papp was > 1000 ×10⁻⁶ cm/s. The value for `CCOC(=O)c1ccc(NC(=O)N2Cc3[nH]cnc3C[C@H]2c2nc(C(C)C)no2)cc1` was 113 ×10⁻⁶ cm/s; that for `Cc1ccc(-c2cc(C(=O)Nc3ccc(C#N)cc3)c3ccccc3n2)cc1C` was 285 ×10⁻⁶ cm/s; that for `CCCCn1cc2c(c1-c1ccc(Br)cc1)c(=O)n(C)c(=O)n2C` was > 1000 ×10⁻⁶ cm/s. The value for `COc1cc(C2c3cc(O)c(OC)cc3CC3C(=O)OCC32)ccc1O` (configuration not stated) was 129 ×10⁻⁶ cm/s; that for `CCOc1ccc(-c2cn3c(n2)sc2cc(C(=O)NCCCN(CC)CC)ccc23)cc1` was > 1000 ×10⁻⁶ cm/s; that for `CC[C@H](NC(=O)c1c(O)c(-c2ccccc2)nc2ccccc12)c1ccccc1` was 298 ×10⁻⁶ cm/s. `CCOC(=O)c1c(NC(=O)CN2CCCCC2)sc2c1CCN(C(=O)OCC)C2`: the apparent permeability coefficient (Papp) was > 1000 ×10⁻⁶ cm/s. The figure for `Cc1ccc(C)c(CN2C(=O)c3ccccc3S(=O)c3ccc(C(=O)N4CCN(c5ccccc5F)CC4)cc32)c1` (configuration not stated) is > 1000 ×10⁻⁶ cm/s. The value for `CCOC(=O)C1CCN(C(=O)C2(NC(=O)Nc3ccccc3Cl)CCC2)CC1` was 266 ×10⁻⁶ cm/s; that for `NC[C@H](O)c1ccc(O)c(O)c1` was 5.7 ×10⁻⁶ cm/s.

For the molecule `Cc1cccc(-c2noc([C@@H]3Cc4nc[nH]c4CN3)n2)c1`, the apparent permeability (Papp) is 343 ×10⁻⁶ cm/s. The value for `CCOc1ccc(CCNC(=O)c2ccccc2)cc1OCC` was 580 ×10⁻⁶ cm/s; that for `Cc1cccc(-c2noc([C@@H]3Cc4nc[nH]c4CN3C(=O)CC(C)(C)CC(=O)O)n2)c1` was 34.2 ×10⁻⁶ cm/s.

Molecule `Nc1nc(N)c2cc(Sc3ccc4ccccc4c3)ccc2n1` came in with a Papp of 461 ×10⁻⁶ cm/s.

For `Nc1c(C(=O)Nc2ccc(Cl)c(C(F)(F)F)c2)sc2nc3c(cc12)N1CCC3CC1`, the apparent permeability coefficient (Papp) was > 1000 ×10⁻⁶ cm/s. As for `O=S(=O)(Nc1cccc2ccncc12)c1ccc(NCc2cccc(Cl)c2O)cc1`, the Papp was > 1000 ×10⁻⁶ cm/s. On to `Cc1ccc(S(=O)(=O)n2cc(C(=O)Nc3nc(-c4ccccc4)cs3)c3ccccc32)cc1`, for which the Papp was found to be 3.4 ×10⁻⁶ cm/s. The figure for `CCCN(CCC)CCc1cccc2c1CC(=O)N2` is 179 ×10⁻⁶ cm/s; for `CC1(C)CNc2cc(NC(=O)c3cccnc3NCc3ccncc3)ccc21` it is > 1000 ×10⁻⁶ cm/s; for `O=C(NCC1Cn2cccc2CN1Cc1cccnc1)Nc1ccccc1` (configuration not stated) it is < 1 ×10⁻⁶ cm/s.
